# Assay results as given in patent publication US8916183B2, “Pesticidal compositions and processes related thereto” (priority 2012, dated 2014).
# What was measured:
# [1] = system: Corn Earworm (CEW) (Helicoverpa zea); test: Bioassay on corn earworm (CEW), 128-well diet tray assay; assay type: in vivo; settings: corn earworm, 50 μg/cm^2; for mortality at 50 µg/cm2: Helicoverpa zea, read-out: % Mortality CEW 50 μg/cm^2
# Outline: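 Activity was scored as percent larval mortality per well, averaged across eight wells and reported on a rating scale. Diet trays (128-well) were kept at 25° C with 14:10 light-dark for five to seven days.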
# [2] = system: Green Peach Aphid (GPA) (Myzus persicae); test: Bioassay on green peach aphid (GPA), foliar spray on cabbage seedlings; assay type: in vivo; settings: green peach aphid, 200 ppm, read-out: % Mortality GPA 200 ppm
# Outline: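 Cabbage seedlings (2-3 true leaves), each infested a day earlier with 20-50 wingless adult and nymph GPA, were sprayed on both leaf sides to runoff, four pots per treatment. Corrected % control was calculated against solvent-check plants.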
# [3] = system: Beet Armyworm (BAW) (Spodoptera exigua); test: Bioassay on beet armyworm (BAW), 128-well diet tray assay; assay type: in vivo; settings: beet armyworm, 50 μg/cm^2; for mortality at 50 µg/cm2: Spodoptera exigua, read-out: % Mortality BAW 50 μg/cm^2
SMILES,melting point [°C],mortality at 50 µg/cm2 [1] [%],mortality at 200 ppm [2] [%],mortality at 50 µg/cm2 [3] [%],% Mortality CEW 50 μg/cm^2 [1],% Mortality BAW 50 μg/cm^2 [3]
FC(F)(F)Oc1ccc(-n2cnc(-c3ccc(/C=N/NC(=S)Nc4ccccc4C4CCCC4)cc3)n2)cc1 [Compound I-35],213 to 216,,,,,
Cc1ccc(C(C)C)c(NC(=S)NN)c1 [Compound I-46],167 to 169,,,,,
CC(C)c1cc(F)c(F)cc1NC(=S)N/N=C/c1ccc(-c2ncn(-c3ccc(OC(F)(F)F)cc3)n2)cc1 [Compound I-55],217 to 221,,,,,
CC(C)c1cc(F)c(F)cc1NC(=S)NN [Compound I-54],169 to 170,,,,,
CC(C)c1cc(F)ccc1NC(=S)NN [Compound I-50],163 to 167,,,,,
Cc1cccc(NC(=S)N/N=C/c2ccc(-c3ncn(-c4ccc(OC(F)(F)F)cc4)n3)cc2)c1C(C)C [Compound I-43],219 to 222,,,,,
COc1cc(C)c(/N=C(\N/N=C/c2ccc(-c3ncn(-c4ccc(C(F)(F)F)cc4)n3)cc2)SCOC(=O)C(C)C)c(C)c1 [Compound 46C],,50 to 100,0,50 to 100,,
COc1cc(C)c(/N=C(/N/N=C/c2ccc(-c3ncn(-c4ccc(OC(F)(F)C(F)(F)F)cc4)n3)cc2)SCOC(=O)C(C)C)c(C)c1 [Compound 37C],,50 to 100,0,50 to 100,,
CCOc1ccccc1N1CCCS/C1=N\N=C\c1ccc(-c2ncn(-c3ccc(OC(F)(F)F)cc3)n2)cc1 [Compound 208C],,50 to 100,0,50 to 100,,
COc1cc(Cl)c(/N=C(/N/N=C/c2ccc(-c3ncn(-c4ccc(OC(F)(F)F)cc4)n3)cc2)SCOC(=O)OC(C)C)c(Cl)c1 [Compound 33C],,50 to 100,0 to 80,50 to 100,,
COCCOC(C)C(=O)OCS/C(=N\c1c(C)cccc1C)N/N=C/c1ccc(-c2ncn(-c3ccc(OC(F)(F)F)cc3)n2)cc1 (stereo not drawn) [Compound 41C],,50 to 100,0,50 to 100,,
Cc1cccc(C)c1/N=C(/N/N=C/c1ccc(-c2ncn(-c3ccc(OC(F)(F)F)cc3)n2)cc1)SCC(=O)N1CCNCC1 [Compound 67C],,50 to 100,0,50 to 100,,
Cc1cccc(C)c1/N=C(/N/N=C/c1ccc(-c2ncn(-c3ccc(OC(F)(F)F)cc3)n2)cc1)SCOC(=O)OC(C)C [Compound 24C],,50 to 100,0 to 80,50 to 100,,
COc1cc(C)c(N2/C(=N/N=C/c3ccc(-c4ncn(-c5ccc(OC(F)(F)F)cc5)n4)cc3)SCC2(C)O)c(C)c1 (stereo not drawn) [Compound 255C],,50 to 100,0,50 to 100,,
Cc1cccc(C)c1/N=C(/N/N=C/c1ccc(-c2ncn(-c3ccc(OC(F)(F)F)cc3)n2)cc1)SCC(=O)NCC(NC(=O)OC(C)(C)C)C(=O)O (stereo not drawn) [Compound 59C],,50 to 100,0 to 80,50 to 100,,
Cc1cccc(C)c1/N=C(/N/N=C/c1ccc(-c2ncn(-c3ccc(OC(F)(F)F)cc3)n2)cc1)SCc1ccc(C(F)(F)F)o1 [Compound 16C],,50 to 100,0,50 to 100,,

SMILES,melting point [°C],mortality at 50 µg/cm2 [1] [%],mortality at 200 ppm [2] [%],mortality at 50 µg/cm2 [3] [%],% Mortality CEW 50 μg/cm^2 [1],% Mortality BAW 50 μg/cm^2 [3]
Cc1cnccc1N1C(=O)CS/C1=N\N=C\c1ccc(-c2ncn(-c3ccc(OC(F)(F)F)cc3)n2)cc1 [Compound 118C],,50 to 100,0,50 to 100,,
Cc1cc(C)c(N2C(=O)CS/C2=N\N=C\c2ccc(-c3ncn(-c4ccc(OC(F)(F)F)cc4)n3)cc2)c(C)c1 [Compound 72C],,50 to 100,0 to 80,50 to 100,,
COc1cc(C)c(/N=C(/N/N=C/c2ccc(-c3ncn(-c4ccc(OC(F)(F)C(F)(F)F)cc4)n3)cc2)SCC(=O)O)c(C)c1 [Compound 51C],,50 to 100,0,50 to 100,,
COc1ccccc1N1CCCS/C1=N\N=C\c1ccc(-c2ncn(-c3ccc(OC(F)(F)F)cc3)n2)cc1 [Compound 191C],,50 to 100,0,50 to 100,,
Cc1cccc(Cl)c1N1C(=O)CS/C1=N\N=C\c1ccc(-c2ncn(-c3ccc(OC(F)(F)F)cc3)n2)cc1 [Compound 93C],,50 to 100,0,50 to 100,,
COc1cc(C)c(N2CCS/C2=N\N=C\c2ccc(-c3ncn(-c4ccc(OC(F)(F)F)cc4)n3)cc2)c(C)c1 [Compound 138C],,50 to 100,0 to 80,50 to 100,,
Cc1cccc(Cl)c1N1CCCS/C1=N\N=C\c1ccc(-c2ncn(-c3ccc(OC(F)(F)F)cc3)n2)cc1 [Compound 196C],,50 to 100,0,50 to 100,,
Cc1cccc(C)c1/N=C(/N/N=C/c1ccc(-c2ncn(-c3ccc(OC(F)(F)F)cc3)n2)cc1)SC/C=C/Br [Compound 4C],,50 to 100,0 to 80,50 to 100,,
COC(=O)c1ccc(CS/C(=N\c2c(C)cccc2C)N/N=C/c2ccc(-c3ncn(-c4ccc(OC(F)(F)F)cc4)n3)cc2)cc1 [Compound 12C],,50 to 100,0 to 80,50 to 100,,
CCc1cccc(C)c1N1C(=O)CS/C1=N\N=C\c1ccc(-c2ncn(-c3ccc(OC(F)(F)F)cc3)n2)cc1 [Compound 111C],,50 to 100,0 to 80,50 to 100,,
Cc1cccc(Cl)c1-n1c(C)cs/c1=N\N=C\c1ccc(-c2ncn(-c3ccc(OC(F)(F)F)cc3)n2)cc1 [Compound 174C],,50 to 100,0 to 80,50 to 100,,
CCc1ccccc1N1CCCS/C1=N\N=C\c1ccc(-c2ncn(-c3ccc(OC(F)(F)F)cc3)n2)cc1 [Compound 185C],,50 to 100,0,50 to 100,,
"COc1cc(C)c(/N=C(/N/N=C/c2ccc(-c3ncn(-c4ccc(OC(F)(F)F)cc4)n3)cc2)SCC(=O)O)c(C)c1.[Na+] [Compound 68C, 2-(((Z)-((4-methoxy-2,6-dimethylphenyl)imino)((E)-2-(4-(1-(4-(trifluoromethoxy)phenyl)-1H-1,2,4-triazol-3-yl)benzylidene)hydrazinyl)methyl)-thio)acetic acid sodium salt]",,,0 to 80,,A (50-100),A (50-100)
Cc1ccccc1N1/C(=N/N=C/c2ccc(-c3ncn(-c4ccc(OC(F)(F)F)cc4)n3)cc2)SCC1(C)O (stereo not drawn) [Compound 248C],,50 to 100,0 to 80,50 to 100,,
Cc1cccc(C)c1/N=C(/N/N=C/c1ccc(-c2ncn(-c3ccc(OC(F)(F)F)cc3)n2)cc1)SCc1ccc(S(=O)(=O)Nc2ccc(F)cc2)cc1 [Compound 18C],,50 to 100,0 to 80,50 to 100,,
CC(=O)OCS/C(=N\c1c(C)cccc1C)N/N=C/c1ccc(-c2ncn(-c3ccc(OC(F)(F)F)cc3)n2)cc1 [Compound 31C],,50 to 100,0 to 80,50 to 100,,
